Source: PMC12302338, “Functional genomics and structural insights into maize aldo-keto reductase-4 family: Stress metabolism and substrate specificity in embryos” (The Journal of Biological Chemistry, 2025)

Biological target: T1, ZmAKR4C13 (Zea mays, UniProt E9JVD4)
T1 construct: gene AR3; monomer
Assay: X-ray crystallography
Type: binding
Conditions: 5JGW 2.30 Å (P2_12_12_1); 5JGY 1.45 Å (P2_1), partial occupancy
Excerpt: X-ray crystallography on ZmAKR4C13 | b32; b72

T1 sequence (E9JVD4 1-319): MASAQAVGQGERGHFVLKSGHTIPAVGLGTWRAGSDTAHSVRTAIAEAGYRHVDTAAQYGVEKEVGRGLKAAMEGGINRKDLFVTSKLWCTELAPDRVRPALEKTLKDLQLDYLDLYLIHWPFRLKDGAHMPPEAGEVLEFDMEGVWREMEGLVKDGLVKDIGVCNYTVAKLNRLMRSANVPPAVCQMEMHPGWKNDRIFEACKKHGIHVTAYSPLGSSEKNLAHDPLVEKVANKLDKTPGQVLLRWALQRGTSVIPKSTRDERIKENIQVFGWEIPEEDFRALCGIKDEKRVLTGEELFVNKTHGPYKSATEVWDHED

X-ray crystallography: b32; b72
SMILES: NC(=O)c1ccc[n+]([C@@H]2O[C@H](COP(=O)(O)OP(=O)(O)OC[C@H]3O[C@@H](n4cnc5c(N)ncnc54)[C@H](OP(=O)(O)O)[C@@H]3O)[C@@H](O)[C@H]2O)c1 [NADP+]
